Test results taken from patent US20240360107A1, “AN EIF4A INHIBITOR WITH A NOVEL MECHANISM OF ACTION” (ARIZONA BOARD OF REGENTS ON BEHALF OF THE UNIVERSITY OF …, priority 2021, published 2024).
Entries after “also recorded” stand apart in the source; their conditions may differ. Like-named read-outs stand apart in the source and are kept apart here.

Columns and labels:
[1] = test system: BJAB Burkitt lymphoma cells; assay: CellTiter-Glo Luminescent Cell Viability assay; format: cell-based; details: 72 h; for effect on BJAB cell viability: top concentration 10 uM
Protocol: Compounds 1 and compound 28 were evaluated in a CellTiter-Glo (CTG) Luminescence cell viability assay in BJAB Burkitt lymphoma cells that are known to be sensitive to eIF4A inhibition. This assay quantitates the number of living, metabolically active cells by measuring their ATP levels.
Cell viability assay. BJAB lymphoma cells were plated in quadruplicate at 5,000 cells/well in serial dilutions of drug ranging two logs with the top concentration of compounds tested at 10 uM. Viability was measured after 72 h using Cell Titer Glo (Promega G7573) following the manufacturer's protocol. Luminescence was detected on the BioTek HT Synergy plate reader and values were normalized to vehicle-treated (DMSO) wells. Silvestrol was included as a positive control (not shown).

eIF4A [2] = target: T1, eIF4A (Homo sapiens, UniProt P60842); assay: kinetic testing using the malachite green assay (ATP and RNA titration); format: biochemical; set-up: 6xHis with TEV protease site (N, cleaved yes); made in house; host or cells: E. coli BL21-CodonPlus; details: for Alpha value for ATP / Ki / Alpha value for RNA: mixed-model inhibition fit
Protocol: (§1) ATP titration (left) used 250 μg/mL RNA. Data were fit using unbiased mixed-model inhibition in Prism 6.0. Alpha value for ATP is 0.424, indicating an ATP-uncompetitive inhibitor. Kiapp for ATP is 10.3 μM. RNA titration (right) used 250 μM ATP. […] Kiapp for RNA is 9.59 μM. Data shown are an average of 3 independent experiments.
as §1, with “was done with” for “used”, “0.514,” for “0.424,”, “ATP=4.79” for “ATP is 10.3”, “RNA=4.27” for “RNA is 9.59”
ATPase assay. Recombinant WT or mutant eIF4A was added to a clear bottom 384 well plate (Greiner) in ATPase buffer (20 mM Tris pH 7.4, 80 mM KCl, 2.5 mM MgCl2, 1 mM DTT, 1% glycerol). Compounds were added and the plate was incubated at 37° C. for 20 min. ATP/RNA solution was added to afford a 20 μL per well reaction volume with 750 nM eIF4A, 250 μM ATP, and 0.25 mg/mL Yeast RNA (Sigma) for the initial screen and dose responses, and varying concentrations of ATP and RNA for the kinetic assays. The plate was incubated for 4 h at 37° C. for the initial screen and dose responses, and at seven time points (1 hour-7 hours) for kinetic assays. 0.04% v/v (final concentration) Tween-20 was added to a Malachite Green solution, and the Malachite Green (40 μL per well) was added. The solution was incubated for 5 minutes at room temperature and Absorbance at 660 nm was read on a SpectraMax iD5 plate reader (Molecular Devices).

eIF4A [3] = target: T1, eIF4A; assay: Helicase (duplex unwinding) assay; format: biochemical; set-up: 6xHis with TEV protease site (N, cleaved yes); made in house; host or cells: E. coli BL21-CodonPlus; details: Cy3-RNA/DNA duplex, 2.5 μM eIF4A, 2 mM ATP
Protocol: A functional duplex unwinding assay with a duplex nucleic acid substrate was utilized to test if compound 1 and compound 28 could inhibit eIF4A helicase activity. This unwinding assay features a Cy3-labeled RNA strand annealed to a DNA strand with a long overhang that eIF4A can bind (FIG. 9, top right). When ATP is added to protein and substrate, eIF4A unwinds the duplex, leaving an unlabeled DNA strand and a Cy3-labeled single stranded RNA. When visualized on a native gel, the larger intact fluorescent duplex substrate will run higher on the gel than the smaller unwound single-stranded fluorescent RNA. The ratio of these two Cy3 signals can be used to determine the helicase activity of eIF4A in each condition.
Dose responses of compound 1 and compound 28 were conducted using this assay. […] The intensity of each band in each gel lane was quantified by densitometry to obtain IC50 values for compound 1 and compound 28 in this assay. […]
Helicase assay. […] All products were analyzed by electrophoresis on 20% native polyacrylamide (37.5:1 acrylamide:bisacrylamide) gels. Gels were run at 4° C. for 2 hours and Cy3 signal was detected on an Azure 600 Fluorescent Imaging System (Azure Biosystems) at 524 nm:572 nm (Ex:Em). Cy3 signal was quantified by gel band densitometry performed using ImageJ32 (NIH). IC50 values were calculated using GraphPad Prism v6.0.

[4] = ATP titration, 250 μg/mL RNA, read-out: Kiapp for ATP
[5] = RNA titration, 250 μM ATP, read-out: Kiapp for RNA

T1 sequence (P60842 whole entry): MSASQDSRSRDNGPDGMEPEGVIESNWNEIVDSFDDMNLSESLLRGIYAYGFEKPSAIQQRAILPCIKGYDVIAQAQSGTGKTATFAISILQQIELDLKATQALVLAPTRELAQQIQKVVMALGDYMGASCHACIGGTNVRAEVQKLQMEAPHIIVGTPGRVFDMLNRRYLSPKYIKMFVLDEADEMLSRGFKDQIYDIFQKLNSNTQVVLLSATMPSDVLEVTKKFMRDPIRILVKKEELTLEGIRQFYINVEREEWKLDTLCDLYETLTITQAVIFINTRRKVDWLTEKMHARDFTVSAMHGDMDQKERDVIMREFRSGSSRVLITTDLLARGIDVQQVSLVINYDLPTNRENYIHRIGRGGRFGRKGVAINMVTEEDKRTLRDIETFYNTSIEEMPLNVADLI

CCCCc1ccc(-c2ccc(-c3cc(C(=O)O)c4cc(Br)ccc4n3)o2)cc1 [Compound 1, 6-bromo-2-(5-(4-butylphenyl)furan-2-yl)quinoline-4-carboxylic acid]
effect on BJAB cell viability [1]: decrease BJAB cell viability
EC50 ([1]; Homo sapiens, CellTiter-Glo, n=4): 2.13 ± 0.17 µM
mechanism of inhibition with respect to ATP (eIF4A [2]): uncompetitive with respect to ATP
mechanism of inhibition with respect to RNA (eIF4A [2]): RNA-competitive
Alpha value for ATP (eIF4A [2]; ATP titration, 250 μg/mL RNA): 0.424
Ki (eIF4A [2]; [4]): 10.3 µM
Alpha value for RNA (eIF4A [2]; RNA titration, 250 μM ATP): 4.53×10^13
Ki (eIF4A [2]; [5]): 9.59 µM
inhibition of eIF4A duplex unwinding (eIF4A [3]): inhibit eIF4A duplex unwinding

CCCCc1ccc(-c2ccc(-c3cc(C(=O)O)c4cc([N+](=O)[O-])ccc4n3)o2)cc1 [Compound 28, 2-(5-(4-butylphenyl)furan-2-yl)-6-nitroquinoline-4-carboxylic acid]
effect on BJAB cell viability [1]: three to four times more potent than 1; also recorded: decrease BJAB cell viability
mechanism of inhibition with respect to ATP (eIF4A [2]): ATP-uncompetitive
mechanism of inhibition with respect to RNA (eIF4A [2]): RNA-competitive
Alpha value for ATP (eIF4A [2]; ATP titration, 250 μg/mL RNA): 0.514
Ki (eIF4A [2]; [4]): 4.79 µM
Alpha value for RNA (eIF4A [2]; RNA titration, 250 μM ATP): 4.52×10^21
Ki (eIF4A [2]; [5]): 4.27 µM
inhibition of eIF4A duplex unwinding (eIF4A [3]): about four-fold more potent than compound 1; also recorded: inhibit eIF4A duplex unwinding
